Laboratory results reported in patent US10969390B2, “Method for evaluating efficacy of chemoradiotherapy against squamous cell carcinoma” (NATIONAL CANCER CENTER, priority 2014, dated 2021).

Tests used:
[1] = test system: SIM2 stably expressing lines (T.Tn-SIM2-9 and -23); assay: cisplatin long-term sensitivity test of SIM2-gene stably expressing lines, three-dimensional culturing, viable cell count; assay type: cell-based; details: 14 days, CDDP 5×10^−6 M, T.Tn-SIM2-9 and -23 versus T.Tn-Mock
Description: The SIM2 gene was introduced into TE8 obtained from RIKEN BRC and KYSE510 and T. Tn obtained from JCRB Cell Bank. The resultant was cultured in a medium containing 400 μg/ml of G-418 for approximately 2 weeks. The G418 resistant colonies were isolated and cultured. The SIM2 gene expression was confirmed by an RT-PCR method. Thus, SIM2-gene stably expressing lines were established. Cell lines in which only a GFP expression plasmid vector was introduced were prepared as control cell lines. To extract the total RNAs and evaluate the differentiation-inducing activities of the SIM2-gene stably expressing lines, the SIM2-gene stably expressing lines were each seeded into NanoCulture (registered trademark) Plate and then cultured with a normal medium for 3 days. The total RNA was extracted, and an RT-PCR method was performed. The cDNA was synthesized using SuperScript (registered trademark) III First-Strand Synthesis System for RT-PCR. […] The resultant was quantified and compared by agarose gel electrophoresis.
To evaluate the sensitivities of the SIM2-gene stably expressing lines to CDDP long-term administration, an anticancer-agent sensitivity test was conducted employing three-dimensional culturing. […] After that, the number of viable cells was counted.

[2] = test system: SIM2 stably expressing lines (KYSE510-SIM2-27 and -37, TE8-SIM2-2 and -3, T.Tn-SIM2-9 and -23) of esophageal squamous cell carcinoma cell lines; assay: anticancer-agent sensitivity test of SIM2-gene stably expressing lines, two-dimensional culturing, viable cell count (trypan blue); assay type: cell-based; details: for sensitivities to anticancer agents of SIM2 stably expressing lines in comparison with control-vector introduced lines: two-dimensional culture, 3 days, CDDP 2, 5, 10 μM, 5-FU 10 μM, DTX 1 nM, versus KYSE510-Mock, TE8-Mock, T.Tn-Mock
Description: The SIM2 gene was introduced into TE8 obtained from RIKEN BRC and KYSE510 and T. Tn obtained from JCRB Cell Bank. The resultant was cultured in a medium containing 400 μg/ml of G-418 for approximately 2 weeks. The G418 resistant colonies were isolated and cultured. The SIM2 gene expression was confirmed by an RT-PCR method. Thus, SIM2-gene stably expressing lines were established. Cell lines in which only a GFP expression plasmid vector was introduced were prepared as control cell lines. To extract the total RNAs and evaluate the differentiation-inducing activities of the SIM2-gene stably expressing lines, the SIM2-gene stably expressing lines were each seeded into NanoCulture (registered trademark) Plate and then cultured with a normal medium for 3 days. The total RNA was extracted, and an RT-PCR method was performed. The cDNA was synthesized using SuperScript (registered trademark) III First-Strand Synthesis System for RT-PCR. The diluted cDNA was mixed with AccuPrime (registered trademark) Taq DNA Polymerase System (Invitrogen), primers, and nuclease-free water, and amplified using GeneAmp (registered trademark) PCR System 9700 (Applied Biosystems Inc.). The resultant was quantified and compared by agarose gel electrophoresis.
To evaluate the sensitivities of the SIM2-gene stably expressing lines to cisplatin (CDDP), 5-fluorouracil (5-FU), and docetaxel (DTX), an anticancer-agent sensitivity test was conducted. The SIM2-gene stably expressing lines were each seeded into a 6-well plate, cultured with a normal medium for 1 day, and then cultured with a normal medium or a medium supplemented with CDDP (2 μM, 5 μM, 10 μM), 5-FU (10 μM), or DTX (1 nM) for 3 days. After the chemical treatment was completed, the cells were collected using 0.25% trypsin/EDTA and stained with trypan blue. After that, the number of viable cells was counted.

Row | SMILES | sensitivities to CDDP of SIM2 stably expressing lines in comparison with control-vector introduced line [1] | CDDP effect in 3 days (two-dimensional culturing) ([2]; concentration near IC50, 3 days, FIG. 6) | sensitivities to anticancer agents of SIM2 stably expressing lines in comparison with control-vector introduced lines [2]
1 | N.N.[Cl][Pt][Cl] [cisplatin] | remarkably increased | significant but small | increased
2 | O=c1[nH]cc(F)c(=O)[nH]1 [5-fluorouracil] | – | – | increased
3 | CC(=O)O[C@@]12CO[C@@H]1C[C@H](O)[C@@]1(C)C(=O)[C@H](O)C3=C(C)[C@@H](OC(=O)[C@H](O)[C@@H](NC(=O)OC(C)(C)C)c4ccccc4)C[C@@](O)([C@@H](OC(=O)c4ccccc4)[C@H]21)C3(C)C [docetaxel] | – | – | increased
